Here are results for two compounds from patent US11666558B2, “Methods of treating intraocular pressure with activators of Tie-2” (EyePoint Pharmaceuticals, Inc., priority 2015, dated 2023).

Read-outs that look alike come from different tables or passages of the source.

A short description of series [1]: Plasma concentrations and pharmacokinetic parameters after topical ocular, subcutaneous and intravitreal administration. Format: in vivo, New Zealand White rabbits. The note with it: plasma, plasma; for AUC(0-t): read-out: AUClast (± SE); for concentration at 0.5 hr: 0.50 hr. Here is the method: To measure the concentration of Compound 1 in plasma and ocular tissues following topical ocular, subcutaneous, and intravitreal administration, New Zealand White rabbits were administered Compound 1, and plasma and ocular samples were collected at pre-determined time points. Compound 1 formulations were prepared fresh on each day of dosing.
New Zealand White rabbits weighing 2.5 to 3.5 kg were used on this study. Rabbits were housed one per cage. Animals were not fasted and only healthy animals with no ocular illness were used. Two rabbits per group were sacrificed at each of four ocular tissue sampling time points for a total of eight rabbits per group.
Animals were anesthetized for ocular (topical) and intravitreal dosing following the 12IA7 IACUC protocol. Each rabbit received a bolus dose of test formulation either via topical ocular administration 3 times daily on Days 1 and 2 (at 0, 6, and 12 hours), and once on Day 3 (at 0 hours) into both eyes; via intravitreal administration into both eyes once on Day 1 (at 0 hours); or via subcutaneous administration 2 times daily on Days 1 and 2 (at 0 and 8 hours) and once daily on Day 3 (at 0 hours). Doses were given within an approximately 1 hour window each day where applicable.
Each blood sample was collected on Day 3 post dose at pre-determined time points from the rabbits via an ear vessel and placed into chilled polypropylene tubes containing sodium heparin as an anticoagulant. Samples were spun by centrifuge at 4° C. and 3,000×g for 5 minutes. Samples were maintained chilled throughout processing. Each plasma sample was placed on dry ice and stored in a freezer at −60° C. to −80° C. pending bioanalysis.
An LC-MS/MS method was developed for the determination of Compound 1 in rabbit aqueous tissues (plasma, aqueous and vitreous humor) and solid ocular tissue samples. A pre-study standard curve was analyzed to determine the specificity, range, and lower limit of quantitation of the method. Plasma and tissue homogenate study samples were extracted and analyzed. All the samples were treated identically to the standards.
One eight-point standard curve was used in each analytical batch. To be accepted, each batch must have had at least five of eight standards with accuracy within ±20% of nominal, except at the lower limit of quantification (LLOQ), where ±25% was acceptable.
Pharmacokinetic parameters were calculated from the time course of the plasma concentration. The maximum plasma concentration (Cmax) and time to the maximum plasma drug concentration (Tmax) were the observed values for each concentration-time profiles. The area under the plasma drug concentration-time curve (AUClast, with last being from time 0 to the last quantifiable point) was calculated using the trapezoidal formula. The mean residence time MRTlast was calculated as a ratio of AUMClast (area under the first movement curve) to AUClast.

The nature of series [2]: In vitro diffusion across rabbit cornea and sclera in Franz cell. Format: in vitro ADME. The note with it: 1.5% of the sodium salt with 5% HPβCD in 50:50 D5W:sterile water.
[3] abbreviates: New Zealand White, rabbit, other: intravitreal, 1.54 mg/kg, intravitreal 2.5 mg/eye (~1.54 mg/kg), suspension.
The mark [4] stands for this setting: New Zealand White, rabbit, other: intravitreal, 2.5 mg, intravitreal 2.5 mg/eye (~1.54 mg/kg), suspension.
Setting [5] is: New Zealand White, rabbit, other: intravitreal, 2.5 mg/eye, intravitreal 2.5 mg/eye (~1.54 mg/kg), suspension, read-out: plasma Average.
Where [6] appears, read: New Zealand White, rabbit, other: intravitreal, 2.5 mg/eye, intravitreal 2.5 mg/eye (~1.54 mg/kg), suspension, read-out: plasma Conc., individual rabbit.
Where [7] appears, read: New Zealand White, rabbit, sc, 5 mg/kg, subcutaneous 5 mg/kg/dose, suspension.
Where [8] appears, read: New Zealand White, rabbit, subcutaneous, 5 mg/kg/dose, subcutaneous 5 mg/kg/dose, suspension, read-out: plasma Average.
The mark [9] stands for this setting: New Zealand White, rabbit, subcutaneous, 5 mg/kg/dose, subcutaneous 5 mg/kg/dose, suspension, read-out: plasma Conc., individual rabbit.
The mark [10] stands for this setting: intravitreal suspension, normalized by 1.54 mg/kg.
The mark [11] stands for this setting: subcutaneous suspension, normalized by 5 mg/kg.

In series [1] (setting [3]), `COC(=O)N[C@@H](Cc1ccccc1)C(=O)N[C@@H](Cc1ccc(NS(=O)(=O)O)cc1)c1csc(-c2cccs2)n1` [Compound 1 free acid] showed an AUC(0-inf) of 746 ng·h/mL, a Cmax of 25.3 ng/mL, a mean residence time MRT last of 19.1 h and a half-life of 16.5 h. Besides, in series [1] (setting [3]), the AUC(0-t) came to 707 ng·h/mL. Moreover, the Tmax in series [1] (New Zealand White, rabbit, other: intravitreal, 1.54 mg/kg, intravitreal 2.5 mg/eye (~1.54 mg/kg), suspension, read-out: tmax) amounted to 1 h. In series [1] (setting [4]), the area under the curve AUC(0-inf) came to 746 ng·h/mL, the highest level (Cmax) was 25.3 ± 9.3 ng/mL, the MRT last was 19.1 h and the half-life was 16.5 h. Also, the AUC(0-t) in series [1] (setting [4]) was 707 ± 53.1 ng·h/mL. For the same compound, the time of peak concentration (Tmax) in series [1] (New Zealand White, rabbit, other: intravitreal, 2.5 mg, intravitreal 2.5 mg/eye (~1.54 mg/kg), suspension, read-out: tmax) is 1 h. In series [1] (New Zealand White, rabbit, other: intravitreal, 2.5 mg/eye, intravitreal 2.5 mg/eye (~1.54 mg/kg), suspension, 1.0 hr, read-out: plasma Average), the concentration at 1 h was determined as 25.3 ng/mL. In series [1] (setting [5]), the concentration at 3 h was 24.4 ng/mL, the concentration at 6 h came out at 23.1 ng/mL, the concentration at 24 h worked out at 12.3 ng/mL and the concentration at 48 h was 3.63 ng/mL. In addition, in series [1] (setting [5]), the concentration at 72 h stood at 1.65 ng/mL. Further, in series [1] (setting [6]), the concentration at 3 h was determined as 28.4 ng/mL, the concentration at 6 h worked out at 22 ng/mL, the concentration at 24 h was determined as 9.96 ng/mL and the concentration at 48 h amounted to 2.69 ng/mL. The concentration at 72 h in series [1] (setting [6]) turned out to be 1.83 ng/mL. In series [1] (setting [7]), the AUC(0-t) was 864 ± 69 ng·h/mL, the total exposure AUC(0-inf) was 1200 ng·h/mL, the maximum concentration (Cmax) is 395 ± 170 ng/mL and the MRT last came to 1.58 h. Besides, the half-life in series [1] (setting [7]) is 2.12 h. In addition, the time of peak concentration (Tmax) in series [1] (New Zealand White, rabbit, sc, 5 mg/kg, subcutaneous 5 mg/kg/dose, suspension, read-out: tmax) is 0.25 h. The time of peak concentration (Tmax) in series [1] (New Zealand White, rabbit, sc, 5 mg/kg, subcutaneous administration, suspension, read-out: Mean plasma Tmax (converted)) was 0.25 h. For the same compound, in series [1] (New Zealand White, rabbit, subcutaneous, 5 mg/kg/dose, subcutaneous 5 mg/kg/dose, suspension, 0.25 hr, read-out: plasma Average), the concentration at 0.25 hr is 395 ng/mL. In series [1] (setting [8]), the concentration at 0.5 hr came to 337 ng/mL, the concentration at 2 hr was found to be 206 ng/mL and the concentration at 4 hr was 110 ng/mL. In addition, in series [1] (setting [9]), the concentration at 0.5 hr was 272 ng/mL, the concentration at 2 hr was determined as 194 ng/mL and the concentration at 4 hr worked out at 111 ng/mL. The concentration at 1 hr in series [1] (New Zealand White, rabbit, subcutaneous, 5 mg/kg/dose, subcutaneous 5 mg/kg/dose, suspension, 1.0 hr, read-out: plasma Average) was 295 ng/mL. In series [1] (New Zealand White, rabbit, subcutaneous, 5 mg/kg/dose, subcutaneous 5 mg/kg/dose, suspension, 1.0 hr, read-out: plasma Conc., individual rabbit), the concentration at 1 hr was determined as 300 ng/mL. Also, in series [1] (setting [10]), the “Dose normalized AUClast” value was found to be 459 kg·ng·h/mL/mg and the “Dose normalized AUC∞” value came out at 484 kg·ng·h/mL/mg. Moreover, the “Dose normalized AUClast” value in series [1] (intravitreal suspension, normalized by 1.54 mg/kg, listed as Compound 1 (free acid)) is 459 ± 34.5 kg·ng·h/mL/mg. In series [1] (setting [11]), the “Dose normalized AUClast” value came to 173 kg·ng·h/mL/mg and the “Dose normalized AUC∞” value stood at 240 kg·ng·h/mL/mg. For the same compound, the “Dose normalized AUClast” value in series [1] (subcutaneous suspension, normalized by 5 mg/kg, listed as Compound 1 (free acid)) was determined as 173 ± 13.8 kg·ng·h/mL/mg.
For `COC(=O)N[C@@H](Cc1ccccc1)C(=O)N[C@@H](Cc1ccc(NS(=O)(=O)O)cc1)c1csc(-c2cccs2)n1` [Compound 1], the “diffusion across rabbit cornea and sclera” value in series [2] was “substantial diffusion”.

In general, AUC(0-inf) refers to total exposure, with the tail of the curve extrapolated. A high value points to more exposure. The term Cmax denotes the peak of the concentration-time curve. Usually MRT last stands for the average time that molecules of a dose stay in the body. Usually half-life stands for the time in which the quantity being followed falls by half. The Tmax is the time from dosing to the highest level.
